Test results taken from publication PMC5685639, “A trehalose biosynthetic enzyme doubles as an osmotic stress sensor to regulate bacterial morphogenesis” (PLoS Genetics, 2017).

Target: T1, OtsA (Arthrobacter alpinus, UniProt C7EZF1)
T1 construct: recombinant, expressed in and purified from E. coli; self-assembles into large networks
T1 sequence (C7EZF1 1-495): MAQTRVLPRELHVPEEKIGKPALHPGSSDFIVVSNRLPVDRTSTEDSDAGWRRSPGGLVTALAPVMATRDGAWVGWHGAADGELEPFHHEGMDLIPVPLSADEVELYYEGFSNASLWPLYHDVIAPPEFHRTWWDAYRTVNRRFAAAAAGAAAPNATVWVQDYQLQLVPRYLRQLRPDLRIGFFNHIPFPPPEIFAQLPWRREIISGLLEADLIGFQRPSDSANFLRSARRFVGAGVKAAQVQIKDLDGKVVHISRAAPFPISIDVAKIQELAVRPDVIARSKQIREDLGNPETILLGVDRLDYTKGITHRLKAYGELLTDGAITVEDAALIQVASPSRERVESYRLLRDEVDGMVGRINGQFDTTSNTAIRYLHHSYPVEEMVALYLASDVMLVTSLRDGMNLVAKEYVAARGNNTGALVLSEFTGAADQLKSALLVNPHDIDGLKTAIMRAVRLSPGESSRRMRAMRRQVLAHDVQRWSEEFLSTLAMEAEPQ
Assay: dynamic light scattering, self-assembly promoted by T6P
Format: binding
Details: 10 uM OtsA, 20 mM Tris HCl pH 7.5, 1 mM MgCl2, 1 M urea, 20 °C; up to 500 uM T6P; T6P is also the enzyme product

Question: Which “dynamic light scattering, self-assembly promoted by T6P” value does the source give for `O=P(O)(O)OC[C@H]1O[C@H](O[C@H]2O[C@H](CO)[C@@H](O)[C@H](O)[C@H]2O)[C@H](O)[C@@H](O)[C@@H]1O` [T6P, trehalose-6-phosphate] here?
Answer: The value was “increasing concentrations of this metabolite had a dramatic effect on promoting the rate of OtsA polymerization”.
